Measurements as given in patent US20140180549A1, “AUTOMATED MACHINE FOR SELECTIVE IN SITU MANIPULATION OF PLANTS” (The Arizona Board of Regents on Behalf of the University of …, priority 2011, published 2014).

Test system: Lettuce seedlings
Test: Comparison of automated (machine-vision spray) and hand plant thinning
Assay type: in vivo
Conditions: for Time (hand laborer with hand hoe to remove weeds and lettuce plants missed during thinning): after thinning operation; for Time (hand laborer with hand hoe to remove weeds and lettuce plants missed during thinning) / Plant Count (number of live plants per acre after thinning): letters = Duncan's groups (P = 0.05); for machine performance as compared to hand thinning / Plant Count (number of live plants per acre after thinning) / Plant Spacing (average of the measured distance to each live plant after thinning): lettuce seedlings; for machine performance as compared to hand thinning: liquid product sprayed by automated thinning machine; for Plant Count (number of live plants per acre after thinning) / Plant Spacing (average of the measured distance to each live plant after thinning): product sprayed by automated thinning machine; for Plant Spacing (average of the measured distance to each live plant after thinning): letters = Duncan's new multiple range test groups (P = 0.05)
Text: The machine vision system used in this example is as described in Example 1, except the spray nozzles were enclosed within a “hooded” box assembly to protect sprayed treatment from wind effects.
Lettuce seedlings were thinned either using the machine vision system with the indicated treatments. The far left column lists the seven treatments tested, including hand thinning (control) and six treatments used by the automated thinning machine. Of these six, the automated thinning machine was evaluated spraying five different liquid products (two acids, two fertilizers, and one herbicide) known to kill plants and one mechanical method (knife blade—“hula hoe” design). The second column is the cost of the material sprayed for the flow rates and travel speeds used. The third column is the average of the measured distance to each live plant after thinning. The fourth column is the number of live plants per acre after thinning. The fifth column is the time required by a hand laborer to walk through the field with a hand hoe and remove weeds in the row between crop plants and any lettuce plants missed during the thinning operation.

SMILES | Time (hand laborer with hand hoe to remove weeds and lettuce plants missed during thinning) | machine performance as compared to hand thinning | Plant Count (number of live plants per acre after thinning) | Plant Spacing (average of the measured distance to each live plant after thinning)
C[n+]1ccc(-c2cc[n+](C)cc2)cc1 [Paraquat, reference compound] | 2.8d hr/acre | no difference | 27,692b per/acre | 9.6ab inch
CC(=O)O [Acetic Acid (20%), Acetic Acid] | 3.0cd hr/acre |  | 30,181b per/acre | 8.9b inch
O=S(=O)(O)O [Sulfuric Acid (10%), Sulfuric Acid] | 2.7d hr/acre | no difference | 26,758b per/acre | 10.2a inch
